Test systems include 786-0 renal; HOP-92 NSCLC; UACC-257 melanoma; KM12 colon; ACHN renal; NCI/ADR-RES ovarian; MDA-N; HL-60(TB) leukemia; M14 melanoma; HS 578T breast; MOLT-4 leukemia.
Holding throughout (test): NCI anticancer screen, dose series, 48 h

The structures appear in SMILES notation.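 Values below derive from 48-hour exposures of cells grown in 96-well plates, with endpoints linearly interpolated between the two concentrations bracketing the appropriate inhibition level. The concentration for full growth arrest is given as TGI.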

Consider `CC1=CC(C)C/C=C/C2C3OC3(C)C(C)C3C(Cc4c[nH]c5ccccc45)NC(=O)C23C(=O)C=CC(=O)C1O` (stereo unspecified), for which the TGI in the experiment on 786-0 renal was determined as 10.8 µM; with HOP-92 NSCLC, 3.13 µM; in the experiment on UACC-257 melanoma, 16.4 µM; in the experiment with KM12 colon, 30 µM; in the experiment on ACHN renal it was 2.73 µM; in the experiment on NCI/ADR-RES ovarian, 68.2 µM. Also, the TGI with MDA-N was 22.6 µM; with HL-60(TB) leukemia it was 5.55 µM; with M14 melanoma it was 16.8 µM; in the experiment with HS 578T breast, 56.5 µM; in the experiment on MOLT-4 leukemia, 5.2 µM.

Source of the values: PubChem BioAssay (NCI).
